Source: patent publication US6083981A, “Sulfonamide substituted aspartic acid interleukin-1β converting enzyme inhibitors” (Warner-Lambert Company, priority 1999, dated 2000)

Experiments:
[1] = system: IL-1β production in human peripheral blood mononuclear cells (PBMCs); assay: PBMC Cellular Assay, inhibition of LPS-stimulated IL-1β production; format: cell-based; conditions: mature IL-1β by ELISA, 10 ng/mL LPS overnight, 2% human AB serum
Excerpt: (§1) Further evidence that compounds of Formula I, II, and III are inhibitors of ICE is provided by their ability to inhibit IL-1β production in human peripheral blood mononuclear cells (PBMCs) as described herein. PBMCs are isolated from heparinized blood by centrifugation over a ficoll cushion, then washed three times with phosphate-buffered saline. PBMCs are suspended in a medium containing RPMI 1640 with glutamine, penicillin, streptomycin, and 2% human AB serum, then plated at 10^6 cells per well in 96 well flat bottom plates. PBMCs are stimulated overnight with 10 ng/mL of lipopolysaccharide (LPS, E. Coli strain 0111:B4; Calbiochem) in the presence or absence of a compound of Formula I. Medium is harvested and the level of mature IL-1β was determined using an ELISA kit from R & D Systems. Compound inhibition is assessed by determining the concentration of agent which reduces IL-1β levels by 50%. Cells were cultured for an additional four hours in the presence of 3-(4,5-dimethylthiazol-2-yl)-2,5-diphenyltetrazolium bromide (MTT) to determine viability. Compound toxicity can, therefore, be assessed by determining the concentration of agent which kills 50% of the cells (IC50).

ICE [2] = target: T1, ICE (Homo sapiens, UniProt P29466); assay: ICE Colorimetric Dose-Response (IC50) Assay; format: biochemical; conditions: 24 nM ICE, 60 min preincubation, 50 μM Ac-Tyr-Val-Ala-Asp-pNA, pH 7.5, 25° C
T1 sequence (P29466 120-297 limits assumed): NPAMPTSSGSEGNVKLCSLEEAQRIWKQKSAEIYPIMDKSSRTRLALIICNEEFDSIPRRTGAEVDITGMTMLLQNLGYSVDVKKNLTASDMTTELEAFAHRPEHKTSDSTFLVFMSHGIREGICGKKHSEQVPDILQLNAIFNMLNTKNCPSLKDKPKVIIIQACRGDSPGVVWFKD
T1 sequence (P29466 317-404 limits assumed): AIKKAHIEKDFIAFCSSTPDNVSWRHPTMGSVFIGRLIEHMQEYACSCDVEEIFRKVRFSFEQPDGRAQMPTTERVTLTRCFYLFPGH
Experimental: Aliquots of each dilution are transferred to a microtitre plate in triplicate.
(§2) ICE enzyme is diluted to approximately 24 nM in HGE buffer (100 mM Hepes pH 7.5, 0.5 mM EDTA, 20% glycerol, 0.1% Bovine Serum Albumin (BSA), and activated by adding dithiothreitol (DTT) to a final concentration of 5 mM. The activated enzyme is then aliquoted into wells containing inhibitor or vehicle, and the plate is preincubated for 60 minutes at ambient temperature. Substrate (Ac--Tyr--Val--Ala--Asp--pNA) is added to each well to a final concentration of 50 μM, and plates are placed in the microtitre plate-reader thermostated to 25° C. Beginning 5 minutes after addition of substrate, absorbance (405 nm) of wells is monitored for 1 hour, and activity is calculated as the mean rate of change in absorbance during this interval.

Ich-2 (Caspase-4) = target: T2, Ich-2 (Caspase-4) (Homo sapiens, UniProt P49662); assay: Ich-2 (Caspase-4) Colorimetric Dose-Response (IC50) Assay; format: biochemical; conditions: 64 nM enzyme, 60 μM Ac-Leu-Glu-Val-Asp-pNA
T2 sequence (P49662 81-270 limits assumed): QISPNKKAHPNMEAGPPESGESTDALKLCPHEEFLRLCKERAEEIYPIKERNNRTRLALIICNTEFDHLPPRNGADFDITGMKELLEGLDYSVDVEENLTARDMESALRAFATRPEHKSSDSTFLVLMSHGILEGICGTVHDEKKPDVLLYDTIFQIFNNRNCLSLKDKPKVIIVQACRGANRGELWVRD
T2 sequence (P49662 290-377 limits assumed): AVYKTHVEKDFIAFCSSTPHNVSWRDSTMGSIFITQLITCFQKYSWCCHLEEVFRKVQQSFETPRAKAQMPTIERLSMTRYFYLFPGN
Experimental: as §2
Inhibition of Ich-2 enzyme is assayed as described above for ICE, except that enzyme is used at 64 nM, and 60 μM of the Ich-2-specific substrate Ac--Leu--Glu--Val--Asp--pNA is used instead of the ICE substrate Ac--Tyr--Val--Ala--Asp--pNA.

[3] = system: human peripheral blood mononuclear cells (PBMCs); assay: PBMC viability (MTT), compound toxicity; format: cell-based
Excerpt: as §1

ICE [4] = target: T1, ICE; assay: ICE inhibition, fluorometric Ki (Ac-Tyr-Val-Ala-Asp-AMC substrate); format: biochemical; conditions: 0.24 nM ICE, 15 μM Ac-Tyr-Val-Ala-Asp-AMC, reversible competitive model
Experimental: Substrate hydrolysis is monitored for 300 seconds by observing the fluorescence of released AMC using excitation at 380 nm and emission at 460 nm. Mean rates of substrate hydrolysis are evaluated by linear-regression analysis of the fluorescence vs time traces.

[5] = PBMC viability (MTT), compound toxicity; format: cell-based; conditions: human, MTT viability, additional four hours, concentration which kills 50% of the cells, read-out: PBMC TC50
Excerpt: as §1

Row | Molecule | IC50 (ICE [2]) [µM] | IC50 (Ich-2 (Caspase-4)) [µM] | Ki (ICE [4]) [µM] | IC50 [1] [µM] | CC50 [3] [µM] | IC50 ([1]; PBMC) [µM] | CC50 [5] [µM]
1 | 3-(2-Sec-Butoxy-Benzenesulfonylamino)-4-Oxo-Butyric Acid [Example 27] | 35 | 118 | 3.9 | > 100 | > 100 |  | 
2 | CCc1ccccc1Oc1ccccc1S(=O)(=O)NC(C=O)CC(=O)O (stereo not shown) [Example 18, 3-[2-(2-Ethyl-Phenoxy)-Benzenesulfonylamino]-4-Oxo-Butyric Acid] | 14 | 87 | 2 |  |  | 80 | > 100
3 | CCC(C)c1ccc(Oc2ccccc2S(=O)(=O)NC(C=O)CC(=O)O)cc1 (stereo not shown) [Example 19, 3-[2-(4-Sec-Butyl-Phenoxy)-Benzenesulfonylamino]-4-Oxo-Butyric Acid] | 2.2 | 4 | 0.5 |  |  | 23 | > 100
4 | O=CC(CC(=O)O)NS(=O)(=O)c1ccccc1Oc1ccc(-c2ccccc2)cc1 (stereo not shown) [Example 20, 3-[2-(Biphenyl-4-Yloxy)-Benzenesulfonylamino]-4-Oxo-Butyric Acid] | 4.4 | 17 | 0.3 |  |  | 40 | > 100
5 | CCCCC(C)c1ccc(Oc2ccccc2S(=O)(=O)NC(C=O)CC(=O)O)cc1 (stereo not shown) [Example 21, 3-{2-[4-(1-Methyl-Pentyl)-Phenoxy]-Benzenesulfonylamino}-4-Oxo-Butyric Acid] | 6.1 | 31 | 0.6 |  |  | 33 | 70
6 | O=CC(CC(=O)O)NS(=O)(=O)c1ccccc1OCc1ccccc1 (stereo not shown) [Example 23, 3-(2-Benzyloxy-Benzenesulfonylamino)-4-Oxo-Butyric Acid] | 11 | 97 | 0.8 |  |  | 60 | > 100
7 | CCC(C)c1ccc(Oc2ccccc2S(=O)(=O)NC(C=O)CC(=O)O)cc1C (stereo not shown) [Example 28, 3-[2-(4-Sec-Butyl-3-Methyl-Phenoxy)-Benzenesulfonylamino]-4-Oxo-Butyric Acid] | 1 | 4.6 | 0.1 |  |  | 18 | > 100
8 | CCC(CC)COc1ccccc1S(=O)(=O)NC(C=O)CC(=O)O (stereo not shown) [Example 29] | 8.6 | 215 | 0.3 |  |  | 75 | > 100
9 | O=CC(CC(=O)O)NS(=O)(=O)c1ccccc1OCCc1cccc2ccccc12 (stereo not shown) [Example 31] | 0.4 | 2.3 | 0.062 |  |  | 8 | > 100
10 | O=CC(CC(=O)O)NS(=O)(=O)c1ccccc1Oc1ccc2ccccc2c1 (stereo not shown) [Example 36, 3-[2-(Naphthalen-2-Yloxy)-Benzenesulfonylamino]-4-Oxo-Butyric Acid] | 3.5 | 28 | 0.13 |  |  | 50 | > 100
11 | O=CC(CC(=O)O)NS(=O)(=O)c1ccccc1Sc1ccccc1 (stereo not shown) [Example 39, 4-Oxo-3-[2-Phenylthio-Benzenesulfonylamino]-Butyric Acid] | 21 | 25 | 1.1 |  |  | > 100 | > 100
12 | O=CC(CC(=O)O)NS(=O)(=O)c1ccccc1Nc1ccccc1 (stereo not shown) [Example 40, 4-Oxo-3-[2-N-Phenyl-Benzenesulfonylamino]-Butyric Acid] | 44 | 370 | 10 |  |  | 95 | > 100

Further lines, with some results ahead:

Row | IC50 (ICE [2]) [µM] | IC50 (Ich-2 (Caspase-4)) [µM] | Ki (ICE [4]) [µM] | Molecule | IC50 [1] [µM] | CC50 [3] [µM] | IC50 ([1]; PBMC) [µM] | CC50 [5] [µM]
13 | 13 | 122 | 1 | Cc1cccc(Oc2ccccc2S(=O)(=O)NC(C=O)CC(=O)O)c1C (stereo not shown) [Example 24, 3-[2-(2,3-Dimethyl-Phenoxy)-Benzenesulfonylamino]-4-Oxo-Butyric Acid] |  |  | 73 | > 100
14 | 37 | 341 | 31 | Cc1cccc(-c2ccccc2S(=O)(=O)NC(C=O)CC(=O)O)c1 (stereo not shown) [Example 35, 3-(3'-Methyl-Biphenyl-2-Sulfonylamino)-4-Oxo-Butyric Acid] |  |  | > 100 | > 100
15 | 34 | 151 | 1.9 | Cc1cccc(S(=O)(=O)NC(C=O)CC(=O)O)c1-c1ccccc1 (stereo not shown) [Example 37, 3-(6-Methyl-Biphenyl-2-Sulfonylamino)-4-Oxo-Butyric Acid] |  |  | > 100 | > 100
16 | 11.2 | 76 | 0.67 | Cc1cccc(S(=O)(=O)NC(C=O)CC(=O)O)c1Oc1ccccc1 (stereo not shown) [Example 38, 3-(3-Methyl-2-Phenoxy-Benzenesulfonylamino)-4-Oxo-Butyric Acid] |  |  | 85 | > 100
17 | 12 | 9.2 | 1.5 | Cc1cccc(S(=O)(=O)NC(C=O)CC(=O)O)c1Oc1ccc(C(C)C)cc1 (stereo not shown) [Example 41, 3-[2-(4-Isopropylphenoxy)-3-Methylbenzenesulfonylamino]-4-Oxo-Butyric Acid] |  |  | 45 | > 100
18 | 1.1 | 57 | 0.3 | Cc1ccccc1Oc1c(C)cccc1S(=O)(=O)NC(C=O)CC(=O)O (stereo not shown) [Example 42, 3-[2-(2-Methylphenoxy)-3-Methylbenzenesulfonylamino]-4-Oxo-Butyric Acid] |  |  | 38 | > 100
19 | 41 | 199 | 2.2 | Cc1ccc(Oc2ccccc2)c(S(=O)(=O)NC(C=O)CC(=O)O)c1 (stereo not shown) [Example 44, 3-(5-Methyl-2-Phenoxy-Benzenesulfonylamino)-4-Oxo-Butyric Acid] |  |  | > 100 | > 100
20 | 1.7 | 14 | 18 | Cc1ccc(S(=O)(=O)NC(C=O)CC(=O)O)c(Oc2ccccc2)c1 (stereo not shown) [Example 45, 3-(4-Methyl-2-Phenoxy-Benzenesulfonylamino)-4-Oxo-Butyric Acid] |  |  | 70 | > 100
